Data from ChEMBL document CHEMBL3585327 (Medchemcomm, 2014).

Experiments:
D(2) dopamine receptor [1] = biological target: T1, D(2) dopamine receptor (Homo sapiens, UniProt P14416); test: Agonist activity at human dopamine D2L receptor expressed in CHO cell membranes after 1 hr by [35S]-GTPgammaS binding assay; type: functional
D(2) dopamine receptor [2] = biological target: T1, D(2) dopamine receptor; test: Agonist activity at human dopamine D2L receptor expressed in CHO cell membranes after 1 hr by [35S]-GTPgammaS binding assay relative to 100 uM quinelorane; type: functional
D(1A) dopamine receptor = D(1A) dopamine receptor (Homo sapiens, UniProt P21728); test: Binding affinity to human dopamine D1 receptor
D(2) dopamine receptor [3] = biological target: T1, D(2) dopamine receptor; test: Binding affinity to human dopamine D2 receptor
D(4) dopamine receptor = biological target: T2, D(4) dopamine receptor (Homo sapiens, UniProt P21917); test: Binding affinity to human dopamine D4 receptor
T2 sequence (P21917 whole entry): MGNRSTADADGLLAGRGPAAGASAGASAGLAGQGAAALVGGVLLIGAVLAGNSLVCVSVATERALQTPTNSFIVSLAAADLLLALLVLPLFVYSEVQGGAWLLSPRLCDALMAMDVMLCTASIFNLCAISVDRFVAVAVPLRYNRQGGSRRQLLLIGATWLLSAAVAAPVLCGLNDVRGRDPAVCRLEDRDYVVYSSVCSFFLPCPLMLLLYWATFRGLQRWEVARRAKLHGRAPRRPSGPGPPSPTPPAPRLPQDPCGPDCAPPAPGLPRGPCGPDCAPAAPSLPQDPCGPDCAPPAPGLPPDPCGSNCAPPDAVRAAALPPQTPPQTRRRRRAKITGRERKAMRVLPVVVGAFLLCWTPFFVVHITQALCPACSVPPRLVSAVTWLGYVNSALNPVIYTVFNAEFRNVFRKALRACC

D(1B) dopamine receptor = D(1B) dopamine receptor (Homo sapiens, UniProt P21918); test: Binding affinity to human dopamine D5 receptor
D(2) dopamine receptor [4] = biological target: T1, D(2) dopamine receptor; test: Potency index, ratio of quinelorane EC50 to compound EC50 for human dopamine D2L receptor expressed in CHO cell membranes; type: cell-based

T1 sequence (P14416 whole entry): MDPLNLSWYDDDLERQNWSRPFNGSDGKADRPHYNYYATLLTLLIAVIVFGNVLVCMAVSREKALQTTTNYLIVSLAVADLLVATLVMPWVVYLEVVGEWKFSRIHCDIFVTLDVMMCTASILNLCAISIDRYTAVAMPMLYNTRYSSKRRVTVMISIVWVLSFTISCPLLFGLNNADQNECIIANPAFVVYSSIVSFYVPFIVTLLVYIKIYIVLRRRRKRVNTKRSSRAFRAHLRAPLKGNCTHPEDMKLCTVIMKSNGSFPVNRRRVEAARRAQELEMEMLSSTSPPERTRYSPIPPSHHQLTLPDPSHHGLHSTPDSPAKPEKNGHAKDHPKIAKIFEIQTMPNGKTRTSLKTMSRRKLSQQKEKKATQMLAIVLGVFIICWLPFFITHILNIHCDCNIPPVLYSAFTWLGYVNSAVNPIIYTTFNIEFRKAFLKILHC
D(1A) dopamine receptor, sequence (P21728 whole entry): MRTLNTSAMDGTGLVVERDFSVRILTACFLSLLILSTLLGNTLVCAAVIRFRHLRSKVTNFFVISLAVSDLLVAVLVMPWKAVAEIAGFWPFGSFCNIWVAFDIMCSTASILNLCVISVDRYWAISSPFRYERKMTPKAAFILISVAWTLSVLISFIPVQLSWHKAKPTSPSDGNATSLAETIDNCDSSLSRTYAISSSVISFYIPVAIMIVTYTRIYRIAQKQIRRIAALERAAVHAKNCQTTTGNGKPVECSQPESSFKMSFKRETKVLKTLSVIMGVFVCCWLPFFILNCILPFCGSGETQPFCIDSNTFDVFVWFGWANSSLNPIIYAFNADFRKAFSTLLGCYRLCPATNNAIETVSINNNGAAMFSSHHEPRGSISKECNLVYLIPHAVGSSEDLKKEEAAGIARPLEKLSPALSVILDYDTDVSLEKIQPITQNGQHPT
D(1B) dopamine receptor, sequence (P21918 whole entry): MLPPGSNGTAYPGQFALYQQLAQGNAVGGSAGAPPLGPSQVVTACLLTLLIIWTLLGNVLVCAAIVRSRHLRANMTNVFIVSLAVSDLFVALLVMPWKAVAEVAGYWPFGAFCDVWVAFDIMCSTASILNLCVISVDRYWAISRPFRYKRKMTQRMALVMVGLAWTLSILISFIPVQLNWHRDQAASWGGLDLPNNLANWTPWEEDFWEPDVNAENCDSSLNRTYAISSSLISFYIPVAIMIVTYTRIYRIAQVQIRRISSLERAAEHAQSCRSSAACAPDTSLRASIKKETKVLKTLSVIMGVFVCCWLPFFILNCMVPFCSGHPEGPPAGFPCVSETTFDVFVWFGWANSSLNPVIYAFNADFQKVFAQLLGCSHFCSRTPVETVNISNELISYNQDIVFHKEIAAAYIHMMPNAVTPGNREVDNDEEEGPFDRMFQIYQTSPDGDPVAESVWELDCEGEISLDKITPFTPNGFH

| SMILES | EC50 (D(2) dopamine receptor [1]; read-out: EC50) | Emax (D(2) dopamine receptor [2]) | further results |
| --- | --- | --- | --- |
| CCCN(CCCNC(=O)CCCCCCC(=O)NCCCN(CCC)CCc1cccc2c1CC(=O)N2)CCc1cccc2c1CC(=O)N2 | 22 nM | 99% | – |
| CCCN(CCCNC(=O)CCC(=O)O)CCc1cccc2c1CC(=O)N2 | 4680 nM | 72% | – |
| CCCN(CCC)CCc1cccc2c1CC(=O)N2 [ROPINIROLE] | – | – | Ki (D(1A) dopamine receptor): 32500 nM; Ki (D(2) dopamine receptor [3]): 3.7 nM; Ki (D(4) dopamine receptor): 7.8 nM; Ki (D(1B) dopamine receptor): 41200 nM |
| CCCN(CCCNC(=O)CCCCCCCCCCCCCCCCCCC(=O)NCCCN(CCC)CCc1cccc2c1CC(=O)N2)CCc1cccc2c1CC(=O)N2 | 14 nM | 58% | Ratio EC50 (D(2) dopamine receptor [4]): 3 |
| CCCN(CCCC(=O)OCC)CCc1cccc2c1CC(=O)N2 | 55 nM | 90% | – |
| CCCCCCCCCC(=O)NCCCN(CCC)CCc1cccc2c1CC(=O)N2 | 42 nM | 78% | – |
| CCCN1CCC[C@@H]2Cc3nc(N)ncc3C[C@H]21 [QUINELORANE] | 45 nM | – | – |
| CCCN(CCCNC(=O)CCC(=O)NCCCN(CCC)CCc1cccc2c1CC(=O)N2)CCc1cccc2c1CC(=O)N2 | 28 nM | 94% | – |
| CCCN(CCCNC(=O)OC(C)(C)C)CCc1cccc2c1CC(=O)N2CCCNC(=O)OC(C)(C)C | 1410 nM | 45% | EC50 (D(2) dopamine receptor [1]; read-out: pEC50 (converted)): 1450 nM |
| CCCN(CCCNC(=O)CCCCCCCCCCCCCCC(=O)NCCCN(CCC)CCc1cccc2c1CC(=O)N2)CCc1cccc2c1CC(=O)N2 | 6.2 nM | 85% | Ratio EC50 (D(2) dopamine receptor [4]): 3 |
| CCCNCCc1cccc2c1CC(=O)N2 | 85 nM | 92% | – |
| CCCN(CCCNC(=O)OC(C)(C)C)CCc1cccc2c1CC(=O)N2 | 219 nM | 69% | – |
| CCCN(CCCNC(=O)CCCCCCCCCCC(=O)NCCCN(CCC)CCc1cccc2c1CC(=O)N2)CCc1cccc2c1CC(=O)N2 | 3.9 nM | 85% | Ratio EC50 (D(2) dopamine receptor [4]): 3 |
